According to PMC9853328, “Potent Platinum(IV) Prodrugs That Incorporate a Biotin Moiety to Selectively Target Cancer Cells” (Pharmaceutics, 2022):
“And” between values parts separate entries of the source, which are not always exact repeats. Identical values can stand only once.

Legend:
Format in all cases: cell-based
U87 glioblastoma cells = assay: MTT in vitro cytotoxicity assay, U87; conditions: 72 h drug exposure, n = 3, read-out: GI50 ± SEM, U87
How it was run: (§1)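 MTT absorbance at 540 nm after 72 h drug exposure gave growth inhibition; GI50 taken from eight-point dose–response curves using the difference between day-0 and end-of-exposure optical density. Mean ± SEM, n = 3 separate experiments.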

[1] = system: BE2-C neuroblastoma cells; assay: MTT in vitro cytotoxicity assay, BE2-C; conditions: 72 h drug exposure, n = 3, read-out: GI50 ± SEM, BE2-C
How it was run: as §1

SJ-G2 glioblastoma cells = assay: MTT in vitro cytotoxicity assay, SJ-G2; conditions: 72 h drug exposure, n = 3, read-out: GI50 ± SEM, SJ-G2
How it was run: as §1

[2] = system: ADDP (subclone of A2780) versus A2780 ovarian cancer cell lines; assay: Resistance factor, GI50 in ADDP/GI50 in A2780
[3] = system: panel of cancer cell lines; assay: MTT cytotoxicity averaged across the panel of cancer cell lines
[4] = system: MCF-7 (breast cancer) cells; assay: Cellular platinum uptake by ICP-MS, MCF-7; conditions: 0.1 µM, 4 h, ICP-MS
Description: (§2) Cellular uptake studies were carried out in MCF-7 (breast cancer) and MCF10A (healthy breast) cell lines. Reported in Table S2 are the numbers of cells per well that were seeded onto 12-well plates for each replicate and cell line. After incubating overnight at 37 °C, the cell culture medium was replaced with fresh media containing the test compounds at concentrations of 1.0 and 0.1 µM. After incubating for 4 h, the medium was removed, the cells were washed with PBS twice, and then incubated with trypsin solution until the cells dissociated from the plate. The harvested cells were then placed into an Eppendorf tube and PBS was added to a volume of 1 mL. Cell numbers were determined using trypan blue staining. Cell pellets were obtained after centrifugation and the cells were dispersed in 50 µL of MilliQ™ water and stored immediately at −20 °C until platinum analysis was conducted. These experiments were repeated in triplicate on three separate occasions.
(§3) Sixty-nine percent HNO3 (50 µL) was added to each sample and digested at 80 °C for 1.5 h, before being taken up to 1 mL with H2O. The platinum analysis was conducted using a PerkinElmer (Melbourne, Australia) NexION™ 300X inductively coupled plasma mass spectrometer (ICP-MS). A four-point calibration curve was produced by serial dilution of a certified platinum reference standard. The calibration was linear over the working range (R^2 > 0.9999) and the most abundant platinum isotope (m/z = 195) was monitored. The average values for three independent experiments were reported with standard deviations.

[5] = system: MCF10A (healthy breast) cells; assay: Cellular platinum uptake by ICP-MS, MCF10A; conditions: 1.0 and 0.1 µM, 4 h, among complexes 1–4
Description: as §2
as §3, with “A four-point calibration curve was produced by serial dilution of a certified platinum reference standard.” left out, “The average values for three independent experiments were reported with standard deviations.” left out

## COc1cc[n+]2c3c1ccc1c(OC)cc[n+](c13)[Pt-2]21([OH])([O]C(=O)CCCC[C@@H]2SC[C@@H]3NC(=O)N[C@@H]32)[NH2+][C@H]2CCCC[C@@H]2[NH2+]1.O=[N+]([O-])[O-].O=[N+]([O-])[O-] [Complex 3, [Pt(4,7-dimethoxy-1,10-phenanthroline)(1S,2S-diaminocyclohexane)(biotin)(hydroxido)](NO3)2]
U87 glioblastoma cells
  GI50: 320 ± 60 nM
[1]
  GI50: 2000 ± 70 nM
SJ-G2 glioblastoma cells
  GI50: 570 ± 170 nM
[2]
  Resistance factor (RF): 0.459 and 0.46
[3]; across all cancer cell lines
  enhanced activity compared to platinum(II) precursor across the cancer cell lines: ~ 1.3 fold
[3]; average over cancer cell lines
  fold more active than cisplatin, on average, against all cancer cells: 8 fold
[3]; calculated from the panel of cancer cell lines tested (Table S4)
  GI50: 459 nM
[4]
  cellular platinum uptake in MCF-7: greatest uptake
  fold greater uptake in MCF-7 compared to MCF10A: ~3 fold
[5]
  cellular platinum uptake in MCF10A (rank): lowest uptake levels
